Read-outs that look alike come from different tables or passages of the source.
Target: human μ-opiate receptor (Homo sapiens, UniProt P35372)
Test: Affinity for the human μ-opiate receptor ([3H]-naloxone displacement, SPA, CHO-K1 membrane preparation)
Type: binding
Settings: for inhibition at 1 µM: read-out: μ-Opioid receptor, % inhibition [1 μM]; for Ki: read-out: μ-Opioid receptor, Ki
[1] = 1 μM test substance, inhibition of specific [3H]-naloxone binding

Chain of human μ-opiate receptor (P35372 whole entry): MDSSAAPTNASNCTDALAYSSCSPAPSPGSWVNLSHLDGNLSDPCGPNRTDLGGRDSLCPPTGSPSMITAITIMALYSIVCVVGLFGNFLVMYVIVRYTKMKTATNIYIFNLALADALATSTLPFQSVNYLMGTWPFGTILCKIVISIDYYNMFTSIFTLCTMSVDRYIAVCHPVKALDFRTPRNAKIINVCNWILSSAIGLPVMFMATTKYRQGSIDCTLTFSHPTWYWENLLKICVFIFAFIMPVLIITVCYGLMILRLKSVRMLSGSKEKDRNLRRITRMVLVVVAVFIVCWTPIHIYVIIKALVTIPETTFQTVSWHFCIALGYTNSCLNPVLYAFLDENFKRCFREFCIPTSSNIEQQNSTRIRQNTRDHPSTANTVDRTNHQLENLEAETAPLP

Structure (SMILES) | inhibition at 1 µM [%] | Ki [nM] | other results
COc1ccccc1C(=O)NCCC1CCC(C(c2ccccc2)N(C)C)CC1 (centres unmarked) [compound 414, N-{2-[4-(dimethylamino-phenyl-methyl)-cyclohexyl]-ethyl}-2-methoxy-benzamide] | 99 | 4.6 | –
COC(=O)C(Cc1c[nH]c2ccccc12)NC1CCC(C(c2ccccc2)N(C)C)CC1 (single isomer, unassigned) [compound 175, methyl 2-(4-((dimethylamino)(phenyl)methyl)cyclohexylamino)-3-(1H-indol-3-yl)propanoate] | – | 11 | μ-Opioid receptor, % inhibition [1 μM] (1 μM test substance, inhibition of specific [3H]-naloxone binding, 1 µM): 86%
CN(C)C(c1ccccc1)C1CCC(CNC(=O)c2csc(-c3ccccc3)n2)CC1 (centres unmarked) [compound 335, 2-phenyl-thiazole-4-carboxylic acid [4-(dimethylamino-phenyl-methyl)-cyclohexylmethyl]-amide] | 92 | 33 | –
CN(C)C(c1cccs1)C1CCC(NC(=O)c2csc(-c3ccc4c(c3)CCO4)n2)CC1 (centres unmarked) [compound 239, 2-(2,3-dihydro-benzofuran-5-yl)-thiazole-4-carboxylic acid [4-(dimethylamino-thiophen-2-yl-methyl)-cyclohexyl]-amide] | 82 | 80 | –
CN(C)C(CCc1ccccc1)C1CCC(NC(=O)c2ccc(F)c(C(F)(F)F)c2)CC1 (single isomer, unassigned) [compound 210, N-[4-(1-dimethylamino-3-phenyl-propyl)-cyclohexyl]-4-fluoro-3-trifluoromethyl-benzamide] | 92 | 24 | –
COc1c(C(=O)NCCC2CCC(C(c3ccc(F)cc3)N(C)C)CC2)csc1Cl (centres unmarked) [compound 475, 5-chloro-4-methoxy-thiophene-3-carboxylic acid (2-{4-[dimethylamino-(4-fluoro-phenyl)-methyl]-cyclohexyl}-ethyl)-amide] | 97 | 6.9 | –
CN(C)C(c1cccc(F)c1)C1CCC(CNC(=O)CC(C)(C)C)CC1 (centres unmarked) [compound 295, N-{4-[dimethylamino-(3-fluoro-phenyl)-methyl]-cyclohexylmethyl}-3,3-dimethyl-butyramide] | 101 | 7.3 | –
CSc1ncccc1C(=O)NC1CCC(C(c2cccs2)N(C)C)CC1 (centres unmarked) [compound 208, N-[4-(dimethylamino-thiophen-2-yl-methyl)-cyclohexyl]-2-methylsulfanyl-nicotinamide] | 92 | 130 | –
CN(C)C(c1ccccc1)C1CCC(CNC(=O)c2cc(Cl)cc(Cl)c2)CC1 (centres unmarked) [compound 329, 3,5-dichloro-N-[4-(dimethylamino-phenyl-methyl)-cyclohexylmethyl]-benzamide] | 94 | 35 | –
CN(C)C(c1ccc(Cl)cc1)C1CCC(O)(CCc2ccccc2)CC1 (centres unmarked) [compound 163, 4-[(4-chloro-phenyl)-dimethylamino-methyl]-1-phenethyl-cyclohexanol] | – | – | inhibition at 1 µM [1]: 81%
COc1c(C(=O)NC2CCC(C(c3ccc(F)cc3)N(C)C)CC2)csc1Cl (centres unmarked) [compound 211, 5-chloro-4-methoxy-thiophene-3-carboxylic acid {4-[dimethylamino-(4-fluoro-phenyl)-methyl]-cyclohexyl}-amide] | 92 | – | –
Cc1oc(-c2ccc(Cl)cc2)cc1C(=O)NC1CCC(C(c2cccc(F)c2)N(C)C)CC1 (centres unmarked) [compound 285, 5-(4-chloro-phenyl)-2-methyl-furan-3-carboxylic acid {4-[dimethylamino-(3-fluoro-phenyl)-methyl]-cyclohexyl}-amide] | 71 | – | –
CN(C)C(c1ccccc1)C1CCC(CCNC(=O)c2ccc(F)cc2)CC1 (centres unmarked) [compound 407, N-{2-[4-(dimethylamino-phenyl-methyl)-cyclohexyl]-ethyl}-4-fluoro-benzamide] | 87 | 48 | –
CN(C)C(c1ccc(Cl)cc1)C1CCC(CNC(=O)c2ccccc2Cl)CC1 (centres unmarked) [compound 354, 2-chloro-N-{4-[(4-chloro-phenyl)-dimethylamino-methyl]-cyclohexylmethyl}-benzamide] | 86 | 53 | –
CN(C)C(c1ccc(F)cc1)C1CCC(CNC(=O)CC(C)(C)C)CC1 (centres unmarked) [compound 322, N-{4-[dimethylamino-(4-fluoro-phenyl)-methyl]-cyclohexylmethyl}-3,3-dimethyl-butyramide] | 95 | 31 | –
COc1ccccc1C(=O)NC1CCC(C(c2cccs2)N(C)C)CC1 (centres unmarked) [compound 207, N-[4-(dimethylamino-thiophen-2-yl-methyl)-cyclohexyl]-2-methoxy-benzamide] | 92 | 28 | –
CN(C)C(c1ccc(Cl)cc1)C1CCC(O)(c2ccccc2)CC1 (centres unmarked) [compound 158, 4-[(4-chloro-phenyl)-dimethylamino-methyl]-1-phenyl-cyclohexanol] | – | – | inhibition at 1 µM [1]: 58%
CN(C)C(c1ccccc1)C1CCC(CCNC(=O)C2(c3ccc(Cl)cc3)CCCC2)CC1 (centres unmarked) [compound 449, 1-(4-chloro-phenyl)-cyclopentane-carboxylic acid {2-[4-(dimethylamino-phenyl-methyl)-cyclohexyl]-ethyl}-amide] | 88 | 36 | –

Structure (SMILES) | inhibition at 1 µM [%] | Ki [nM] | other results
CN(C)C(c1ccc(Cl)cc1)C1CCC(CNC(=O)C(c2ccccc2)c2ccccc2)CC1 (centres unmarked) [compound 312, N-{4-[(4-chloro-phenyl)-dimethylamino-methyl]-cyclohexylmethyl}-2,2-diphenyl-acetamide] | 97 | 53 | –
Cc1cc(C(=O)NC2CCC(C(c3ccccc3)N(C)C)CC2)no1 (centres unmarked) [compound 282, 5-methyl-isoxazole-3-carboxylic acid [4-(dimethylamino-phenyl-methyl)-cyclohexyl]-amide] | 73 | 110 | –
CN(C)C(c1ccccc1)C1CCC(CNC(=O)c2cccc(C(F)(F)F)c2)CC1 (single isomer, unassigned) [compound 333, N-[4-(dimethylamino-phenyl-methyl)-cyclohexylmethyl]-3-trifluoromethyl-benzamide] | – | 17 | μ-Opioid receptor, % inhibition [1 μM] (1 µM): 92%
CN(C)C(c1ccc(Cl)cc1)C1CCC(CNC(=O)c2csc3ccccc23)CC1 (single isomer, unassigned) [compound 372, benzo[b]thiophene-3-carboxylic acid {4-[(4-chloro-phenyl)-dimethylamino-methyl]-cyclohexylmethyl}-amide] | – | 33 | μ-Opioid receptor, % inhibition [1 μM] (1 µM): 84%
CCC(C(=O)NCCC1CCC(C(c2cccs2)N(C)C)CC1)c1ccccc1 (centres unmarked) [compound 456, N-{2-[4-(dimethylamino-thiophen-2-yl-methyl)-cyclohexyl]-ethyl}-2-phenyl-butyramide] | 96 | 23 | –
Cc1ccccc1C(=O)NCCC1CCC(C(c2ccc(Cl)cc2)N(C)C)CC1 (centres unmarked) [compound 419, N-(2-{4-[(4-chloro-phenyl)-dimethylamino-methyl]-cyclohexyl}-ethyl)-2-methyl-benzamide] | 86 | 32 | –
CC(C)S(=O)(=O)c1csc(C(=O)NC2CCC(C(c3cccs3)N(C)C)CC2)c1Cl (centres unmarked) [compound 221, 3-chloro-4-(propan-2-sulfonyl)-thiophene-2-carboxylic acid [4-(dimethylamino-thiophen-2-yl-methyl)-cyclohexyl]-amide] | 88 | 29 | –
CN(C)C(c1ccccc1)C1CCC(CNC(=O)c2csc3ccccc23)CC1 (centres unmarked) [compound 292, benzo[b]thiophene-3-carboxylic acid [4-(dimethylamino-phenyl-methyl)-cyclohexylmethyl]-amide] | 102 | 1.3 | –
CSc1ncccc1C(=O)NCC1CCC(C(c2ccc(F)cc2)N(C)C)CC1 (centres unmarked) [compound 381, N-{4-[dimethylamino-(4-fluoro-phenyl)-methyl]-cyclohexylmethyl}-2-methyl-sulfanyl-nicotinamide] | – | 99 | μ-Opioid receptor, % inhibition [1 μM]: 83%
CN(C)C(c1ccc(F)cc1)C1CCC(NC(=O)c2ccc(F)cc2)CC1 (centres unmarked) [compound 262, N-{4-[dimethylamino-(4-fluoro-phenyl)-methyl]-cyclohexyl}-4-fluoro-benzamide] | 78 | 96 | –
CN(C)C(c1cccc(F)c1)C1CCC(CNC(=O)C2(c3ccc(Cl)cc3)CCCC2)CC1 (centres unmarked) [compound 327, 1-(4-chloro-phenyl)-cyclopentane-carboxylic acid {4-[dimethylamino-(3-fluoro-phenyl)-methyl]-cyclohexylmethyl}-amide] | 94 | 63 | –
CN(C)C(c1ccccc1)C1CCC(NC(=O)C2CCCC2)CC1 (centres unmarked) [compound 288, cyclopentanecarboxylic acid [4-(dimethylamino-phenyl-methyl)-cyclohexyl]-amide] | 70 | 160 | –
CN(C)C(c1ccccc1)C1CCC(NC(=O)c2cccc(C#N)c2)CC1 (centres unmarked) [compound 261, 3-cyano-N-[4-(dimethylamino-phenyl-methyl)-cyclohexyl]-benzamide] | 78 | 130 | –
CN(C)C(c1ccccc1)C1CCC(CNC(=O)c2ccc(F)c(F)c2)CC1 (single isomer, unassigned) [compound 357, N-[4-(dimethylamino-phenyl-methyl)-cyclohexylmethyl]-3,4-difluoro-benzamide] | – | 60 | μ-Opioid receptor, % inhibition [1 μM] (1 µM): 86%
CN(C)C(c1ccccc1)C1CCC(NC(=O)CC(C)(C)C)CC1 (single isomer, unassigned) [compound 228, N-[4-(dimethylamino-phenyl-methyl)-cyclohexyl]-3,3-dimethyl-butyramide] | 87 | 19 | –
Cc1ccccc1C(=O)NCC1CCC(C(c2ccccc2)N(C)C)CC1 (single isomer, unassigned) [compound 317, N-[4-(dimethylamino-phenyl-methyl)-cyclohexylmethyl]-2-methyl-benzamide] | 95 | 29 | –
CCCC(=O)N(c1ccccc1)C1CCC(C(c2ccccc2)N(C)C)CC1 (centres unmarked) [compound 180, N-(4-((dimethylamino)(phenyl)methyl)cyclohexyl)-N-phenylbutyramide] | 90 | – | –
